Measurements as given in patent US20230085307A1, “PYRIDAZINONE COMPOUND AND HERBICIDE” (NISSAN CHEMICAL CORPORATION, priority 2019, published 2023).

What was measured:
[1] = tested on: lambsquarters; assay: Test Example 4: herbicidal effect by soil treatment (Table 19, symbol O); assay type: in vivo, lambsquarters (Chenopodium album); settings: amount of applied herbicide 320 g/ha
Method in brief: (§1)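 Emulsion of test compound, water-diluted to predetermined amount, sprayed on soil after sowing (seed depth ~1.5 cm, sterilized diluvial soil). Greenhouse, 25–30° C. Effect graded at three weeks post-spray.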

[2] = tested on: green foxtail; assay: Test Example 4: herbicidal effect by soil treatment (Table 19, symbol G); assay type: in vivo, green foxtail (Setaria viridis); settings: amount of applied herbicide 320 g/ha
Method in brief: as §1

[3] = tested on: windgrass; assay: Test Example 4: herbicidal effect by soil treatment (Table 19, symbol L); assay type: in vivo, windgrass (Apera spica-venti); settings: amount of applied herbicide 320 g/ha
Method in brief: as §1

[4] = tested on: persian speedwell; assay: Test Example 4: herbicidal effect by soil treatment (Table 19, symbol R); assay type: in vivo, Persian speedwell (Veronica persica); settings: amount of applied herbicide 320 g/ha
Method in brief: as §1

[5] = tested on: Italian ryegrass; assay: Test Example 4: herbicidal effect by soil treatment (Table 19, symbol K); assay type: in vivo, Italian ryegrass (Lolium multiflorum); settings: amount of applied herbicide 320 g/ha
Method in brief: as §1

[6] = tested on: southern crabgrass; assay: Test Example 5: herbicidal effect by foliage application, plastic box (Table 20, symbol F); assay type: in vivo, southern crabgrass (Digitaria ciliaris); settings: 320 g/ha, foliage application after 14-day growth, evaluated three weeks after application
Method in brief: (§2)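 Post-emergence foliar test in sterilized diluvial soil. Compound applied as water-diluted emulsion at a predetermined rate to 14-day-old plants; evaluation at three weeks.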

[7] = tested on: green foxtail; assay: Test Example 5: herbicidal effect by foliage application, plastic box (Table 20, symbol G); assay type: in vivo, green foxtail (Setaria viridis); settings: 320 g/ha, foliage application after 14-day growth, evaluated three weeks after application
Method in brief: as §2

[8] = tested on: velvetleaf; assay: Test Example 4: herbicidal effect by soil treatment (Table 19, symbol M); assay type: in vivo, velvetleaf (Abutilon theophrasti); settings: amount of applied herbicide 320 g/ha
Method in brief: as §1

[9] = tested on: barnyard grass; assay: Test Example 4: herbicidal effect by soil treatment (Table 19, symbol H); assay type: in vivo, barnyard grass (Echinochloa crus-galli); settings: amount of applied herbicide 320 g/ha
Method in brief: as §1

[10] = tested on: redroot pigweed; assay: Test Example 5: herbicidal effect by foliage application, plastic box (Table 20, symbol N); assay type: in vivo, redroot pigweed (Amaranthus retroflexus); settings: 320 g/ha, foliage application after 14-day growth, evaluated three weeks after application
Method in brief: as §2

[11] = tested on: redroot pigweed; assay: Test Example 4: herbicidal effect by soil treatment (Table 19, symbol N); assay type: in vivo, redroot pigweed (Amaranthus retroflexus); settings: amount of applied herbicide 320 g/ha
Method in brief: as §1

[12] = tested on: chickweed; assay: Test Example 4: herbicidal effect by soil treatment (Table 19, symbol P); assay type: in vivo, common chickweed (Stellaria media); settings: amount of applied herbicide 320 g/ha
Method in brief: as §1

[13] = tested on: wild oat; assay: Test Example 4: herbicidal effect by soil treatment (Table 19, symbol I); assay type: in vivo, wild oat (Avena fatua); settings: amount of applied herbicide 320 g/ha
Method in brief: as §1

[14] = tested on: Italian ryegrass; assay: Test Example 5: herbicidal effect by foliage application, plastic box (Table 20, symbol K); assay type: in vivo, Italian ryegrass (Lolium multiflorum); settings: 320 g/ha, foliage application after 14-day growth, evaluated three weeks after application
Method in brief: as §2

[15] = tested on: windgrass; assay: Test Example 5: herbicidal effect by foliage application, plastic box (Table 20, symbol L); assay type: in vivo, windgrass (Apera spica-venti); settings: 320 g/ha, foliage application after 14-day growth, evaluated three weeks after application
Method in brief: as §2

[16] = tested on: barnyard grass; assay: Test Example 5: herbicidal effect by foliage application, plastic box (Table 20, symbol H); assay type: in vivo, barnyard grass (Echinochloa crus-galli); settings: 320 g/ha, foliage application after 14-day growth, evaluated three weeks after application
Method in brief: as §2

[17] = tested on: persian speedwell; assay: Test Example 5: herbicidal effect by foliage application, plastic box (Table 20, symbol R); assay type: in vivo, Persian speedwell (Veronica persica); settings: 320 g/ha, foliage application after 14-day growth, evaluated three weeks after application
Method in brief: as §2

[18] = tested on: chickweed; assay: Test Example 5: herbicidal effect by foliage application, plastic box (Table 20, symbol P); assay type: in vivo, common chickweed (Stellaria media); settings: 320 g/ha, foliage application after 14-day growth, evaluated three weeks after application
Method in brief: as §2

[19] = tested on: Chinese sprangletop; assay: Test Example 3: herbicidal effect by foliage application, Wagner pot (Table 18, symbol D); assay type: in vivo, chinese sprangletop (Leptochloa chinensis); settings: 320 g/ha
Method in brief: (§3)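 Plants were sown in alluvial soil held under 0.1–0.5 cm standing water and grown 14 days in a greenhouse at 25–30 °C. An emulsifiable formulation, water-diluted to the set dose, was then sprayed onto the foliage, and effects were scored three weeks later using previously defined criteria.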

[20] = tested on: blackgrass; assay: Test Example 5: herbicidal effect by foliage application, plastic box (Table 20, symbol J); assay type: in vivo, blackgrass (Alopecurus myosuroides); settings: 320 g/ha, foliage application after 14-day growth, evaluated three weeks after application
Method in brief: as §2

[21] = tested on: southern crabgrass; assay: Test Example 4: herbicidal effect by soil treatment (Table 19, symbol F); assay type: in vivo, southern crabgrass (Digitaria ciliaris); settings: amount of applied herbicide 320 g/ha
Method in brief: as §1

[22] = tested on: lambsquarters; assay: Test Example 5: herbicidal effect by foliage application, plastic box (Table 20, symbol O); assay type: in vivo, lambsquarters (Chenopodium album); settings: 320 g/ha, foliage application after 14-day growth, evaluated three weeks after application
Method in brief: as §2

[23] = tested on: blackgrass; assay: Test Example 4: herbicidal effect by soil treatment (Table 19, symbol J); assay type: in vivo, blackgrass (Alopecurus myosuroides); settings: amount of applied herbicide 320 g/ha
Method in brief: as §1

[24] = tested on: velvetleaf; assay: Test Example 5: herbicidal effect by foliage application, plastic box (Table 20, symbol M); assay type: in vivo, velvetleaf (Abutilon theophrasti); settings: 320 g/ha, foliage application after 14-day growth, evaluated three weeks after application
Method in brief: as §2

[25] = tested on: wild oat; assay: Test Example 5: herbicidal effect by foliage application, plastic box (Table 20, symbol I); assay type: in vivo, wild oat (Avena fatua); settings: 320 g/ha, foliage application after 14-day growth, evaluated three weeks after application
Method in brief: as §2

[26] = tested on: rice flat sedge; assay: Test Example 3: herbicidal effect by foliage application, Wagner pot (Table 18, symbol E); assay type: in vivo, rice flat sedge (Cyperus iria); settings: 320 g/ha
Method in brief: as §3

[27] = tested on: barnyard grass; assay: Test Example 3: herbicidal effect by foliage application, Wagner pot (Table 18, symbol H); assay type: in vivo, barnyard grass (Echinochloa crus-galli); settings: 320 g/ha
Method in brief: as §3

SMILES	Herbicidal effect by soil treatment, O: lambsquarters [1]	Herbicidal effect by soil treatment, G: green foxtail [2]	Herbicidal effect by soil treatment, L: windgrass [3]	Herbicidal effect by soil treatment, R: persian speedwell [4]	Herbicidal effect by soil treatment, K: Italian ryegrass [5]	herbicidal effect on F: southern crabgrass (evaluation grade 0-5) [6]	herbicidal effect on G: green foxtail (evaluation grade 0-5) [7]	Herbicidal effect by soil treatment, M: velvetleaf [8]	Herbicidal effect by soil treatment, H: barnyard grass [9]	herbicidal effect on N: redroot pigweed (evaluation grade 0-5) [10]	Herbicidal effect by soil treatment, N: redroot pigweed [11]	Herbicidal effect by soil treatment, P: chickweed [12]	Herbicidal effect by soil treatment, I: wild oat [13]	herbicidal effect on K: Italian ryegrass (evaluation grade 0-5) [14]	herbicidal effect on L: windgrass (evaluation grade 0-5) [15]	herbicidal effect on H: barnyard grass (evaluation grade 0-5) [16]	herbicidal effect on R: persian speedwell (evaluation grade 0-5) [17]	herbicidal effect on P: chickweed (evaluation grade 0-5) [18]	herbicidal effect on Chinese sprangletop (D) [19]	herbicidal effect on J: blackgrass (evaluation grade 0-5) [20]	other results
CCCC(=O)Oc1c(C)nn(C)c(=O)c1-c1c(-c2ccc(F)cc2)sc2c(F)cccc12 [4-002]	3 (Herbicidal rate of 40% or more and less than 70%)	2 (Herbicidal rate of 20% or more and less than 40%)	0 (Herbicidal rate of 5% or less (almost no effect))	0 (Herbicidal rate of 5% or less (almost no effect))	0 (Herbicidal rate of 5% or less (almost no effect))	0 (Herbicidal rate of 5% or less (almost no effect))	4 (Herbicidal rate of 70% or more and less than 90%)	2 (Herbicidal rate of 20% or more and less than 40%)	4 (Herbicidal rate of 70% or more and less than 90%)	5 (Herbicidal rate of 90% or more (almost completely withered))	3 (Herbicidal rate of 40% or more and less than 70%)	0 (Herbicidal rate of 5% or less (almost no effect))	0 (Herbicidal rate of 5% or less (almost no effect))	3 (Herbicidal rate of 40% or more and less than 70%)	0 (Herbicidal rate of 5% or less (almost no effect))	4 (Herbicidal rate of 70% or more and less than 90%)	4 (Herbicidal rate of 70% or more and less than 90%)	5 (Herbicidal rate of 90% or more (almost completely withered))	2 (Herbicidal rate of 20% or more and less than 40%)	1 (Herbicidal rate of 5% or more and less than 20%)	Herbicidal effect by soil treatment, F: southern crabgrass [21]: 0 (Herbicidal rate of 5% or less (almost no effect)); herbicidal effect on O: lambsquarters (evaluation grade 0-5) [22]: 3 (Herbicidal rate of 40% or more and less than 70%); Herbicidal effect by soil treatment, J: blackgrass [23]: 0 (Herbicidal rate of 5% or less (almost no effect)); herbicidal effect on M: velvetleaf (evaluation grade 0-5) [24]: 5 (Herbicidal rate of 90% or more (almost completely withered)); herbicidal effect on I: wild oat (evaluation grade 0-5) [25]: 0 (Herbicidal rate of 5% or less (almost no effect)); herbicidal effect on rice flat sedge (E) [26]: 5 (Herbicidal rate of 90% or more (almost completely withered)); herbicidal effect on barnyard grass (H) [27]: 5 (Herbicidal rate of 90% or more (almost completely withered))
COc1cc(F)ccc1-c1sc2c(F)cccc2c1-c1c(O)c(C)nn(C)c1=O [4-011]	3 (Herbicidal rate of 40% or more and less than 70%)	3 (Herbicidal rate of 40% or more and less than 70%)	0 (Herbicidal rate of 5% or less (almost no effect))	0 (Herbicidal rate of 5% or less (almost no effect))	0 (Herbicidal rate of 5% or less (almost no effect))	2 (Herbicidal rate of 20% or more and less than 40%)	5 (Herbicidal rate of 90% or more (almost completely withered))	0 (Herbicidal rate of 5% or less (almost no effect))	3 (Herbicidal rate of 40% or more and less than 70%)	3 (Herbicidal rate of 40% or more and less than 70%)	2 (Herbicidal rate of 20% or more and less than 40%)	3 (Herbicidal rate of 40% or more and less than 70%)	0 (Herbicidal rate of 5% or less (almost no effect))	3 (Herbicidal rate of 40% or more and less than 70%)	3 (Herbicidal rate of 40% or more and less than 70%)	3 (Herbicidal rate of 40% or more and less than 70%)	5 (Herbicidal rate of 90% or more (almost completely withered))	5 (Herbicidal rate of 90% or more (almost completely withered))	3 (Herbicidal rate of 40% or more and less than 70%)	3 (Herbicidal rate of 40% or more and less than 70%)	Herbicidal effect by soil treatment, F: southern crabgrass [21]: 0 (Herbicidal rate of 5% or less (almost no effect)); herbicidal effect on O: lambsquarters (evaluation grade 0-5) [22]: 3 (Herbicidal rate of 40% or more and less than 70%); Herbicidal effect by soil treatment, J: blackgrass [23]: 0 (Herbicidal rate of 5% or less (almost no effect)); herbicidal effect on M: velvetleaf (evaluation grade 0-5) [24]: 3 (Herbicidal rate of 40% or more and less than 70%); herbicidal effect on I: wild oat (evaluation grade 0-5) [25]: 0 (Herbicidal rate of 5% or less (almost no effect)); herbicidal effect on rice flat sedge (E) [26]: 5 (Herbicidal rate of 90% or more (almost completely withered)); herbicidal effect on barnyard grass (H) [27]: 4 (Herbicidal rate of 70% or more and less than 90%)
